# Reference: patent US20220054448A1, “NOVEL POLYMETH[…] FOR SKELETAL MUSCLE MODULATION, METHODS AND USES THEREOF” (SOCIETE DES PRODUITS NESTLE S.A., priority 2018, published 2022)
# System: Muscle Stem Cells
# Assay: In vivo muscle regeneration after intramuscular cardiotoxin injury
# Settings: mouse, oral gavage 100 mg/kg body weight once a day from one week before cardiotoxin injury; muscles harvested 5 days after injury; versus water control
# Method: FIG. 5—In Vivo Muscle Regeneration: Measurement of Early Phase Expansion and Differentiation of Muscle Stem Cells
# Early phase of expansion and subsequent phase of myogenic differentiation of Muscle Stem Cells were evaluated.
# Data are expressed as number of cells per area of injured muscle.
# The size of each newly formed myofiber has been measured based on the expression of the eMHC and laminin that allow to recognize and delineate these nascent myofibers. Results are shown as mean myofiber cross-sectional area (μm^2).
# In order to reproduce the physiological process of muscle regeneration that occurs in adult skeletal muscles in response to injury or disease, we performed an intramuscular injection of cardiotoxin into mouse hindlimb muscles. One week prior to the induction of the muscle injury, mice were given by oral gavage compounds of the invention; either cirsimaritin or xanthomicrol at 100 mg/kg body weight and water was used as a control. […] Several myogenic markers were then measured. […]
# In particular, this is shown be the early phase of expansion evaluated by counting the number of Pax7+ cells shown in FIG. 5A and the subsequent phase of myogenic differentiation of Muscle Stem Cells measured by counting the number of myogenin+ cells shown in FIG. 5B, respectively. Data were expressed as number of cells per arear of injured muscle. […]
row,SMILES,"in vivo muscle regeneration process (number of Pax7+ cells, number of myogenin+ cells, size of newly formed myofibers)"
1,"COc1cc2oc(-c3ccc(O)cc3)cc(=O)c2c(O)c1OC [Cirsimaritin, 5,4′-Dihydroxy-6,7-dimethoxyflavone]",promote the in vivo muscle regeneration process
2,"COc1c(OC)c(O)c2c(=O)cc(-c3ccc(O)cc3)oc2c1OC [Xanthomicrol, 5,4′-Dihydroxy-6,7,8-trimethoxyflavone]",promote the in vivo muscle regeneration process
